Assay results: ChEMBL document CHEMBL5465560, “Selectivity Literature for EUbOPEN Chemogenomic Library” (2024)

Legend:
[1] = molecular target: Serine/threonine-protein kinase 33 (Homo sapiens) (UniProt Q9BYT3); test: Selectivity interaction (KinomeScan (DiscoverX)) EUB0000666a STK33; conditions: at 10 µM
[2] = molecular target: Receptor tyrosine-protein kinase erbB-4 (Homo sapiens, UniProt Q15303); test: Selectivity interaction (Radiometric kinase assay (using 10 uM ATP)) EUB0000601a ERBB4
[3] = molecular target: T1, Serine/threonine-protein kinase Sgk3 (Homo sapiens) (UniProt Q96BR1); test: Selectivity interaction (Kinase panel (Z-LYTE Assay)) EUB0001632a SGK3; conditions: at 10 µM
T1 sequence (whole entry): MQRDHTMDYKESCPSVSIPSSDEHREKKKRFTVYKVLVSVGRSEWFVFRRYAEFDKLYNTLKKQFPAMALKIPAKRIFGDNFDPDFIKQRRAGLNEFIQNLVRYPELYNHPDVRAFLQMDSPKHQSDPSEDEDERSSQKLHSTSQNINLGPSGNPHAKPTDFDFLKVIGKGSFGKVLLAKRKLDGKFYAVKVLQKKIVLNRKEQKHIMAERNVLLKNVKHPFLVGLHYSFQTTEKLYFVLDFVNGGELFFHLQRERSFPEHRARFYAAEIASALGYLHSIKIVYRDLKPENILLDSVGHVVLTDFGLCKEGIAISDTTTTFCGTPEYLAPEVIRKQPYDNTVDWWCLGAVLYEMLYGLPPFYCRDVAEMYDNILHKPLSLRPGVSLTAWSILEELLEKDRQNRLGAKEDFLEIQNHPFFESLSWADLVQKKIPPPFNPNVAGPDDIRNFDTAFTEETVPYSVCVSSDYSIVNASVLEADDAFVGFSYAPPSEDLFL

[4] = molecular target: T2, Phosphatidylinositol 4,5-bisphosphate 3-kinase catalytic subunit delta isoform (Homo sapiens) (UniProt O00329); test: Selectivity interaction (ActivX KiNativ screen (kinase selectivity in THP-1 cell lysates)) EUB0000639a PIK3CD; type: subcellular; conditions: lysate, at 0.2 µM
T2 sequence (whole entry): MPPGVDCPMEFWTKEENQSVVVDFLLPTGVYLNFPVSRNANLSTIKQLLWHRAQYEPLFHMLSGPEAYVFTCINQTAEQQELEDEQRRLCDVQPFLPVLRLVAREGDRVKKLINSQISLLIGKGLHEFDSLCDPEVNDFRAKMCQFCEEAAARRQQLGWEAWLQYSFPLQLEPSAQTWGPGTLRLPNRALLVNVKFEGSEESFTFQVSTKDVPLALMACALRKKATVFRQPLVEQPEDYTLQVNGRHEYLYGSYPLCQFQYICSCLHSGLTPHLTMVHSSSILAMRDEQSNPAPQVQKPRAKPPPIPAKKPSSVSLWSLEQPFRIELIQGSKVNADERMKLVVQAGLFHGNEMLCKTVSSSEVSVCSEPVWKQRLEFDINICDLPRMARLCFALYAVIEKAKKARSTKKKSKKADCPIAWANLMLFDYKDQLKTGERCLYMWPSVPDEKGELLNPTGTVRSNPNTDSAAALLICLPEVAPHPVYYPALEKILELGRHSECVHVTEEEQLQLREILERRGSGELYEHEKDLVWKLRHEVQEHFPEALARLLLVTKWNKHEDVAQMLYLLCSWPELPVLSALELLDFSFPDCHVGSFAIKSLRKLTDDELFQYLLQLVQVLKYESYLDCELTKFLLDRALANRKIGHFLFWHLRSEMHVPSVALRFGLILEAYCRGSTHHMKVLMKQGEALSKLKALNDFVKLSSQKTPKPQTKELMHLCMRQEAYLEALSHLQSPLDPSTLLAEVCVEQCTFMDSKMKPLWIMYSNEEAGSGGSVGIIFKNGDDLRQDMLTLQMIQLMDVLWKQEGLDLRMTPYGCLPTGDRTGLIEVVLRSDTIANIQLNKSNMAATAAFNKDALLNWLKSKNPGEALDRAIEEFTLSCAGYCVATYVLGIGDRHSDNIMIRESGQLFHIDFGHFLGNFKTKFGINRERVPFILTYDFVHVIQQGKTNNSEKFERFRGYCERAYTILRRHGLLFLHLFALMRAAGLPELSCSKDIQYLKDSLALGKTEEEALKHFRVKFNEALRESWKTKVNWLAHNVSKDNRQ

[5] = molecular target: T3, 5-hydroxytryptamine receptor 3A (Homo sapiens) (UniProt P46098); test: Selectivity interaction (Panel of kinases, GPCRs, ion channels and transporters (enzymatic assay)) EUB0000223bCl HTR3A
T3 sequence (whole entry): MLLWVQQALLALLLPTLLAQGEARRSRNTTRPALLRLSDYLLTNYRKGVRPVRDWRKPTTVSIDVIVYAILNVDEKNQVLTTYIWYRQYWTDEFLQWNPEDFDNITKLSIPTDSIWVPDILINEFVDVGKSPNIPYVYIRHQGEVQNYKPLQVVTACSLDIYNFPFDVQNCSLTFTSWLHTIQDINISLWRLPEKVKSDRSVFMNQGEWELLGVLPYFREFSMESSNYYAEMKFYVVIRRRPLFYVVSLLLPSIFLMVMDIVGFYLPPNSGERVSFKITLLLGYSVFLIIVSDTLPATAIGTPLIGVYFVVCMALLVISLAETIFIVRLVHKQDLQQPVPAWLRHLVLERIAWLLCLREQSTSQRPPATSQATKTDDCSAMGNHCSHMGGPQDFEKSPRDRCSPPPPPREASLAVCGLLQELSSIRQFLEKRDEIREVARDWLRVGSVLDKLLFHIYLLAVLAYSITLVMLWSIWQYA

[6] = molecular target: Ribosomal protein S6 kinase alpha-3 (Homo sapiens, UniProt P51812); test: Selectivity interaction (SelectScreen profiling (Invitrogen)) EUB0000607a RPS6KA3; conditions: at 2 µM
[7] = molecular target: T1, Serine/threonine-protein kinase Sgk3 (Homo sapiens); test: Selectivity interaction (KinomeScan (DiscoverX)) EUB0001049a SGK3; conditions: at 1 µM
[8] = molecular target: Tyrosine-protein kinase JAK1 (Homo sapiens, UniProt P23458); test: Selectivity interaction (KinomeScan (DiscoverX)) EUB0000595a JAK1; conditions: at 10 µM
[9] = molecular target: STE20/SPS1-related proline-alanine-rich protein kinase (Homo sapiens) (UniProt Q9UEW8); test: Selectivity interaction (KinomeScan (DiscoverX)) EUB0000618a STK39; conditions: at 10 µM
[10] = molecular target: Dual specificity protein kinase CLK1 (Homo sapiens, UniProt P49759); test: Selectivity interaction (Ambit KINOMEscan and KiNATiv profiling in Jurkat cells) EUB0000090b CLK1; type: cell-based; conditions: at 1 µM
Dual specificity protein kinase CLK1, sequence (P49759 whole entry, looked up): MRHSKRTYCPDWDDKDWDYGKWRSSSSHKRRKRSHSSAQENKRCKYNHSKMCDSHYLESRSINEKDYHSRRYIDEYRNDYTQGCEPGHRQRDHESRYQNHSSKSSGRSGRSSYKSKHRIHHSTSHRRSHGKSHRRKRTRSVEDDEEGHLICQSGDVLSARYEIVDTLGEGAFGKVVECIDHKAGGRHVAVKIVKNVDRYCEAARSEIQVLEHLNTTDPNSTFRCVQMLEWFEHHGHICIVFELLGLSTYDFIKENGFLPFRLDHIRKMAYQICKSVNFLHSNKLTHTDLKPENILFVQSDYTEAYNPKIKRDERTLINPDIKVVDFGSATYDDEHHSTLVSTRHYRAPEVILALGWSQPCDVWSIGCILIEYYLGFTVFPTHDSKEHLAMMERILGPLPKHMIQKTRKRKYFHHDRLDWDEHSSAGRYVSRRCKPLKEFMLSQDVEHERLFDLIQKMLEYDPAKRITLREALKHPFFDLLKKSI

Tyrosine-protein kinase JAK1, sequence (P23458 whole entry): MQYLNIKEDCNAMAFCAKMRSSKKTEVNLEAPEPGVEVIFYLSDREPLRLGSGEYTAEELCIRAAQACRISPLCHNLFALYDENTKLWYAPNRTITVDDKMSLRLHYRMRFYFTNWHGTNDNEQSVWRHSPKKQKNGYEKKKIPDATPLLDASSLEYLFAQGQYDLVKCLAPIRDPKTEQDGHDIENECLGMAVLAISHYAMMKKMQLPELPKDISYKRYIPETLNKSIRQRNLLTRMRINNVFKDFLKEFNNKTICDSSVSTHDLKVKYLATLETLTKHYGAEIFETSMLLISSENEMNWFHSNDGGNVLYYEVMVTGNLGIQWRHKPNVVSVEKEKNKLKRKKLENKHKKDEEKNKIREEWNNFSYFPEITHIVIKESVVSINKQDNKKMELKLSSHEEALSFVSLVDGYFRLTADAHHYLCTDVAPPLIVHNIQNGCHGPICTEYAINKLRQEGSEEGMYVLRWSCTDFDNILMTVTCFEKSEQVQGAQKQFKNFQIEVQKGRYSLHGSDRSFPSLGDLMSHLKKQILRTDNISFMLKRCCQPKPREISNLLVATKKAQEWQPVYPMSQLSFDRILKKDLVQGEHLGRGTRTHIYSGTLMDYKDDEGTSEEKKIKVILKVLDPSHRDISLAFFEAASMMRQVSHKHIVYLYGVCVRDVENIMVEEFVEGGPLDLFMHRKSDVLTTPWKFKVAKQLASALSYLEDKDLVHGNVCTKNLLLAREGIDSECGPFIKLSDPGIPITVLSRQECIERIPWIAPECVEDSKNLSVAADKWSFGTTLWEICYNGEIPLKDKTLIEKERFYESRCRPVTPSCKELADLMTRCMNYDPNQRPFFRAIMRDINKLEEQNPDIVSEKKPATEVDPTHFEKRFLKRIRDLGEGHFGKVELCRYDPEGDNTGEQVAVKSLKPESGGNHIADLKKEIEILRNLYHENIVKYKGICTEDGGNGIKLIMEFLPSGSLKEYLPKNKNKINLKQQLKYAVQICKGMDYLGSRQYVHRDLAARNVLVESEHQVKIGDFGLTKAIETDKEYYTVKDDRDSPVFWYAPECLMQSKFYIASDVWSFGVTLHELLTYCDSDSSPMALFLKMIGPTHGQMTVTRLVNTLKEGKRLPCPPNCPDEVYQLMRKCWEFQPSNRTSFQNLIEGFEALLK
Serine/threonine-protein kinase 33 (Homo sapiens), sequence (Q9BYT3 whole entry, looked up): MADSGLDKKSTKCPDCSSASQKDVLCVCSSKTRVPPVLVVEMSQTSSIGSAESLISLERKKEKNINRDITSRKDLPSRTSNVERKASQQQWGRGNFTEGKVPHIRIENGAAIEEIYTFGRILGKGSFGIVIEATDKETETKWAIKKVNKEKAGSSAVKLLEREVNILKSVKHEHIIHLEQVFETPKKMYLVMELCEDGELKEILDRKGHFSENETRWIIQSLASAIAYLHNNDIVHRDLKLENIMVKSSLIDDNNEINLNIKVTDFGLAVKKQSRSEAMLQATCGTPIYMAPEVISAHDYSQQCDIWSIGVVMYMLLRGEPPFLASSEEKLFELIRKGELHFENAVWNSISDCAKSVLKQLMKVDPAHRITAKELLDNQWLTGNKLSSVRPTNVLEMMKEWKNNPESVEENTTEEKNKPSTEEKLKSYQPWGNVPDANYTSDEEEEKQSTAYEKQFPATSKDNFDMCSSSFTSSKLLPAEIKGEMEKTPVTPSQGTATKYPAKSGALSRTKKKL
Receptor tyrosine-protein kinase erbB-4, sequence (Q15303 whole entry): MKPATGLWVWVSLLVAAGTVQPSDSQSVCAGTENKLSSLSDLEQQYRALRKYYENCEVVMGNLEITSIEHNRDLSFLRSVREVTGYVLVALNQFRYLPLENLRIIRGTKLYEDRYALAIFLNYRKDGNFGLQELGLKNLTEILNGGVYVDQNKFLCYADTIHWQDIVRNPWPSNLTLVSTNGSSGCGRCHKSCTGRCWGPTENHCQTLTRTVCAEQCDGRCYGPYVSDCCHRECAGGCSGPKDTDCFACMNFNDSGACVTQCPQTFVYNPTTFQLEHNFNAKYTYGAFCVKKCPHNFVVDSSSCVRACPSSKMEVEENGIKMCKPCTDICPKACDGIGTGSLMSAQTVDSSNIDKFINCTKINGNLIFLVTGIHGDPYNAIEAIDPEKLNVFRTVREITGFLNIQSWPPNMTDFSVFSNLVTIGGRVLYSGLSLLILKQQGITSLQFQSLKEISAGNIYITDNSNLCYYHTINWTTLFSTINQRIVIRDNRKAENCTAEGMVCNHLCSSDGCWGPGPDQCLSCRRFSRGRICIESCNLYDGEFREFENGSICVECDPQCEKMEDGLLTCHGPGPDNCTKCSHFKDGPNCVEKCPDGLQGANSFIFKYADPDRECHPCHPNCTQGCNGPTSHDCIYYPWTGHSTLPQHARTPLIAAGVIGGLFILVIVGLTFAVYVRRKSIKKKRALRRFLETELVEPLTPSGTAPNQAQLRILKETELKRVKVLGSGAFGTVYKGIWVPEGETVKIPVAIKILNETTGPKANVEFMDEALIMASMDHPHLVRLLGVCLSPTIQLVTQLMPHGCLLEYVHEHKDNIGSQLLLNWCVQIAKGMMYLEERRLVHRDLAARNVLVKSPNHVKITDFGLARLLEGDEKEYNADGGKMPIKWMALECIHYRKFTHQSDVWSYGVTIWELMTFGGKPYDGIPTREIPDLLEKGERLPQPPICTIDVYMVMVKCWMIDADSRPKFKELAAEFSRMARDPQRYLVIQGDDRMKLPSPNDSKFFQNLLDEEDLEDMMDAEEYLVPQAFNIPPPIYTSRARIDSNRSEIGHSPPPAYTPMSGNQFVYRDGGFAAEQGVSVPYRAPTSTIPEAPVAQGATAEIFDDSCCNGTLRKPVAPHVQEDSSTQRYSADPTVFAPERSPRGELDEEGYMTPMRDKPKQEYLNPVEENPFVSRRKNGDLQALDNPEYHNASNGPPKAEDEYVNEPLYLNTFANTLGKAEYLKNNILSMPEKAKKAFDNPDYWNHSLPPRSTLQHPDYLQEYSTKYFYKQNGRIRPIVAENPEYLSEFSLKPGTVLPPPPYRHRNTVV
Ribosomal protein S6 kinase alpha-3, sequence (P51812 whole entry): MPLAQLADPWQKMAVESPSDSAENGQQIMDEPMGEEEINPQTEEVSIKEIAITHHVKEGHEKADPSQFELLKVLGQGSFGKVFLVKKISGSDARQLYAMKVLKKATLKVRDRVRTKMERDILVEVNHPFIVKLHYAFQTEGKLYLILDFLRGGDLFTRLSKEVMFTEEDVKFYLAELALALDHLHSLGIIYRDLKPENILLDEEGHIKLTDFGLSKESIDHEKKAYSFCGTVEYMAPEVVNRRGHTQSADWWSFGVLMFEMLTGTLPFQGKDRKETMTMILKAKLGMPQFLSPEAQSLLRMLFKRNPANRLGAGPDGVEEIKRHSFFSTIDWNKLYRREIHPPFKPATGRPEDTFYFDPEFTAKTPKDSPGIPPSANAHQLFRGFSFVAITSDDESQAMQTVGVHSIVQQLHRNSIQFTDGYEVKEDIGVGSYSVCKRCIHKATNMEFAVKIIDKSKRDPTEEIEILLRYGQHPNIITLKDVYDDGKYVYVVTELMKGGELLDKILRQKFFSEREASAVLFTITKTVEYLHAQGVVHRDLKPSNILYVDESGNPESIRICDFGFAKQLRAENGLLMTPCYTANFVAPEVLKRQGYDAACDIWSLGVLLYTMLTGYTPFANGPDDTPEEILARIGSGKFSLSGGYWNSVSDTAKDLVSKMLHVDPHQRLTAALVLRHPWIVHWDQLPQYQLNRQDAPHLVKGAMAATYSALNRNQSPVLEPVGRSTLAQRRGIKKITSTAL

## O=C(NOC[C@H](O)CO)c1ccc(F)c(F)c1Nc1ccc(I)cc1F
[1]
  % of control: 79%

## CCc1cc(Nc2nccc(-c3c(-c4ccc(OC)c(C(=O)Nc5c(F)cccc5F)c4)nc4ccccn34)n2)c(OC)cc1N1CCC(N2CCN(S(C)(=O)=O)CC2)CC1
[2]
  IC50: > 250 µM

## Cn1cc(-n2cnc3c(NCc4nc5cc(Cl)c(Cl)cc5[nH]4)nc(N4CCOCC4)nc32)cn1
[3]
  % of control: 0.168%

## CC[C@@H]1[C@H](F)C(=O)N[C@@H]1COc1nccc2cc(C(N)=O)c(OC)cc12 [ZIMLOVISERTIB]
[4]
  % of inhibition: 4.7%

## COc1cc(C(=O)N2CC[C@@H](O)[C@@H](N)C2)cc2nc(-c3cc4ccccc4n3CC3CC3)n(C)c12
[5]
  pXC50: 5.9 M

## CNC(=O)Nc1ccc(-c2nc(N3CC4CCC(C3)O4)c3cnn(C4CCC5(CC4)OCCO5)c3n2)cc1
[6]
  % of inhibition: -2%

## COc1cc(Nc2nc(C)cc(-c3cnn4nc(OC)ccc34)n2)cc(C(F)(F)F)c1
[7]
  % of control: 74%

## COCC(=O)NC/C=C/c1ccc2ncnc(Nc3ccc(Oc4ccc(C)nc4)c(C)c3)c2c1 [CP-724714]
[8]
  % of control: 100%

## O[C@H]1CC[C@H](Nc2ncc3nc(Nc4c(F)cc(F)cc4F)n([C@H]4CCOC4)c3n2)CC1
[9]
  % of control: 100%

## CN(C)C/C=C/C(=O)Nc1ccc(C(=O)N2CCCC(Nc3ncc(Cl)c(-c4c[nH]c5ccccc45)n3)C2)cc1 (stereo not given)
[10]
  % of control: 62%
